The source of these data is patent US6241963A, “Dopamine and serotonin transporter ligands and imaging agents” (priority 1996, dated 2001).

For data set [1], the system named is dopamine transporters. Put plainly: SPECT imaging in a baboon, co-registered with MRI. The class given is in vivo. Conditions: 60-90 min post iv injection of 9 mCi. The procedure:
A baboon (~15 kg) was the subject of a SPECT imaging study. Prior to imaging, the animal was fasted, immobilized with ketamine (10-20 mg/kg, i.m.) and xylazine (2-3 mg/kg, i.m.), intubated and maintained on a 1.5-2.0% isofluorane/98.5% oxygen mixture (flow rate of 200-500 cc/min). […] Body temperature was maintained using a hot water circulating heating pad and was monitored with a rectal thermometer. The animal's head was immobilized using a vacuum-packed bean-bag device that hardens upon evacuation when molded around the head. No-carrier-added [^99m Tc]TRODAT-1 (1.19a; 9 mCi) was administered as an intravenous bolus in the saphenous vein of the baboon. Immediately after injection, sequential 5 minute per frame dynamic SPECT scans were acquired on a triple-headed Picker Prism 3000 camera (FWHM: 7 mm) equipped with fan beam collimators for 2 hours. The acquisition parameters were a 20% energy window at 140 KeV, 120 projection angles over 360 degrees, a 128×128 matrix, and a zoom factor of 1.78 in a slice thickness of 2 mm. The projection data was reconstructed with a count dependent 3-D Wiener filter. Chang's first order correction method was used to compensate for attenuation. Magnetic resonance images (MRI) of the baboon brain were acquired with a 1.5 Tesla machine (GE Medical Systems, Milwaukee, Wis.). […]

The test system of another data set is dopamine transporter. Put plainly: Blocking studies in rats (pretreatment or co-injection with competing agent). The class given is in vivo, Male Sprague-Dawley rats. The following applies: for ST/CB ratio after pretreatment with haldol (haloperidol) / ST/CB ratio after pretreatment with β-CIT (RTI-55): 60 min, pretreated 1 mg/kg iv, 5 min before tracer; for ST/CB ratio, control rats of blocking study: 60 min post-injection, no pretreatment. The procedure:
(§1) Regional brain distribution in rats was obtained after an injection of 1.19a, 1.19b, 1.20a, 1.20b or 1.21. Samples from different brain regions (cortex, striatum, hippocampus, and cerebellum) were dissected, weighed and counted, and the percentage dose per gram of sample was calculated by comparing the sample counts with the count of the diluted initial dose. The uptake ratio of each region was obtained by dividing the percentage dose per gram of that region by that of the cerebellum. For blocking studies, rats were injected with either β-CIT or haloperidol (iv, 1 mg/Kg) 5 min prior to injection of 1.19a. The rats were dissected and brain tissue samples were counted as described above. The specific uptake of the compound was expressed as ratio of ST/CB (% dose/g of striatum divided by the same of cerebellum).
as §1, with “3.24 to 3.34.” for “1.19a, 1.19b, 1.20a, 1.20b or 1.21.”, “3.25.” for “1.19a.”, “above.” for “above. The specific uptake of the compound was expressed as ratio of ST/CB (% dose/g of striatum divided by the same of cerebellum).”

For data set [2] the following is noted: rat, cited from earlier work.
Data set [3] concerns the target dopamine transporters (Rattus norvegicus, UniProt P23977). Nature of the data set: In vitro autoradiography of rat brain sections. The class given is binding, Male Sprague-Dawley rats. The following applies: rat brain coronal sections. On the procedure: Male Sprague-Dawley rats ([…]) were sacrificed by decapitation, and the brains were removed, placed in OTC embedding medium (Miles Laboratory, Elkhart, Ind.) frozen in powdered dry ice. After equilibration to -15° C., 20 μm coronal sections were sliced on a cryostat (Hacker Instruments, Fairfield, N.J.), thaw mounted onto gelatin-coated slides, desiccated at 4° C. for 3 hours and kept at -70° C. until use. Prior to the experiment, the slides were dried at room temperature and preincubated for 30 minutes in buffer containing 50 mM Tris-HCl (pH 7.4, 120 mM NaCl). The slides were then incubated for 2 hours in preincubation buffer and the [^99m Tc] compound 3.25 (385,000 cpm/200 μL) in a coplan jar, washed for 1 hour in cold Tris buffer, with one change of buffer, dipped in ice-cold water to remove buffer salts and allowed to dry at room temperature. Nonspecific binding was determined in the presence of 1 μM IPT. These slides were simultaneously exposed to DuPont x-ray film in an autoradiographic cassette for 18 hours. The exposed film was developed with a Kodak automatic film processor.

Several values for one entry are separate records, joined by “and”; a condition that tells them apart may be missing. Identical values can stand only once. Entries after “also recorded” stand apart in the source; their conditions may differ.

Chain of dopamine transporters (Rattus norvegicus, UniProt P23977) (P23977 whole entry): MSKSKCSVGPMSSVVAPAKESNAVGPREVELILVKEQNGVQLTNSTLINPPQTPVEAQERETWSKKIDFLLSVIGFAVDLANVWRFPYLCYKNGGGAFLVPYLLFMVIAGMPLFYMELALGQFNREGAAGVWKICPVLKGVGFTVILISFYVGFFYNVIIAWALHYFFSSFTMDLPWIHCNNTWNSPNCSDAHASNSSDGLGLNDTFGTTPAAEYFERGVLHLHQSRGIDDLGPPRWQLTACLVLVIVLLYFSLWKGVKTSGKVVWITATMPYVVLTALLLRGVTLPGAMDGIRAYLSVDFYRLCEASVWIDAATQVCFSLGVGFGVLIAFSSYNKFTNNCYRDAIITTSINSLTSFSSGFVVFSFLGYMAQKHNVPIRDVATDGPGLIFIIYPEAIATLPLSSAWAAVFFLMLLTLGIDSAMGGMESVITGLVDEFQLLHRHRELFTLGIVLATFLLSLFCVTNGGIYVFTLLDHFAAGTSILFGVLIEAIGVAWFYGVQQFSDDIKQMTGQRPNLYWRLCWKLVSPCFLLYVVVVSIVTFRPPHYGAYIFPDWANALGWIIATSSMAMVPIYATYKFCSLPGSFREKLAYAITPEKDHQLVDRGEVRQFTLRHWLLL

`CN1[C@H]2CC[C@@H]1[C@@H](C[N+]13CC[S][99Tc-]14(=[O])[S]CC[N]4CC3)[C@@H](c1ccc(Cl)cc1)C2` (stereo partly shown) [Compound 1.19a]: the “SPECT localization in brain” value with dopamine transporters [1] is “excellent consistence with the expected localization of this agent in caudate and putamen areas; also recorded: A high accumulation”. For the same molecule, in the data set with dopamine transporter, the “ST/CB ratio after pretreatment with haldol (haloperidol)” value amounted to 2.6; the “ST/CB ratio after pretreatment with β-CIT (RTI-55)” value was found to be 1.0; the “ST/CB ratio, control rats of blocking study” value was 2.66 and 2.6.
With `COC(=O)C1C(c2ccc(Cl)cc2)CC2CCC1N2CC[S][99Tc-]12(=[O])[S]CC[N+]1(C)CC[S]2` [Compound 3.25, [^99m Tc] technetium, [methyl 3-(4-chlorophenyl)-8-(2-mercaptoethyl)-8-azabicyclo [3.2.1]octane-2-carboxylato-S][[2,2'-(methylimino)bis[ethanethiolato]](2-)-N,S,S']oxo], in the data set with dopamine transporter, the “ST/CB ratio after pretreatment with haldol (haloperidol)” value is 2.6; the “ST/CB ratio after pretreatment with β-CIT (RTI-55)” value is listed as 1.0; the “ST/CB ratio, control rats of blocking study” value came out at 2.6. The “Initial brain uptake at 2 minutes” value in data set [2] (2 min post iv injection (Meegalla 1995)) is recorded as 0.1%. Moreover, the “ST/CB ratio at 60 minutes” value in data set [2] (60 min after iv injection (Meegalla 1995)) was 3.50. Also, on dopamine transporters [3], the Autoradiographic regional labeling result was “elevated labeling in striatum, major islands of Calleja and olfactory tubercle regions; also recorded: intense labeling in caudate putamen and olfactory tubercle; also recorded: localized in caudate putamen and olfactory tubercle”.
